Common to all, as to format: cell-based
Test [1] has as its system MDA-MB-231 cells. Briefly: Tumor cell proliferation (Alamar Blue), MDA-MB-231. The conditions noted are these: Homo sapiens, MDA-MB-231, 72 h. The protocol:
(§1) Human tumor cells (e.g., HCT116 or MDA-MB-231 cells), are seeded in a Costar 96-well plate at 3.0×10^3 cells/well and grown in 150 μl of RPMI complete media (Invitrogen Corporation, Grand Island, N.Y.) containing 10% fetal bovine serum (Hyclone, Logan, Utah) at 37° C. for 16 h in an incubator with 5% CO2. To each well, 50 μl of additional growth media containing 40 μM to 18 nM concentrations of compound with 0.4% DMSO is added. Cells are grown for another 72 h at 37° C. with 5% CO2. 20 μl of Alamar Blue (Trek Diagnostic Systems, Inc., Cleveland, Ohio) reagent is added to each well and incubated for 3 h at 37° C. Plates are read in a SpectraMax Gemini (Molecular Devices, Calif.) with 544 nm excitation and 590 nm emission wavelength. IC50 values are determined by linear regression analysis of log drug concentration versus percent inhibition.
Background: Alamar Blue is a resazurin reagent that responds to reducing activity.

Test [2] deals with HCT116 cells. Briefly: Tumor cell proliferation (Alamar Blue), HCT116. The conditions noted are these: Homo sapiens, HCT-116, 72 h. The protocol: as §1
For test [3], the system named is VEGF stimulated Phospho-ERK in HUVEC. Nature of the test: Growth factor stimulated p-ERK assay in HUVECs (VEGF stimulation, ERK1/2 Bioplex). The conditions noted are these: Homo sapiens, compound 2 hrs, then 50 ng/ml VEGF 10 min; for inhibition at 0.1 µM: @ 100 nM. The protocol: Growth Factor Stimulated p-ERK assay in HUVECs
Exponentially growing human endothelial HUVECs cells (human umbilical vein endothelial cells, cat# CC-2517, Cambrex, Walkersville, Md.) were seeded at twenty five thousand cells/well in 96 well plates in EBM-2 MV medium with growth factors (cat# CC-3202, Cambrex) and grown at 37° C. in 5% CO2. Sixteen hours post-plating, the cells were changed to serum-free medium (RPMI 1640 containing 0.1% BSA (bovine serum albumin) and compounds were added at different concentrations for 2 hrs, after which the cells were stimulated for 10 min with 50 ng/ml of either VEGF (vascular endothelial growth factor, Protein Sciences, Meriden, Conn.) or bFGF (basic fibroblast growth factor cat# PHG0026, Biosource International, Camarillo, Calif.). The rest of the assay was performed per manufacturer indications for the ERK½ Bioplex assay (cat#171-304004, Bio-Rad, Hercules, Calif.). After removing culture medium by aspiration, the cells were quickly rinsed with 100 μl of cell wash buffer A to stop treatment reaction. Eighty microliters of cell lysis buffer were then immediately added to each well of the 96 well plate which was put on ice. Cells in each well were lysed by pipetting up and down 5 times with a multi-channel pipet. The plate was then agitated on a microtiter plate shaker at 300 rpm for 20 min at 4° C. Cellular debris were pelleted by centrifugation at 4500 g for 15 min at 4° C. and the supernatant was collected. Forty five microliters of supernatant was diluted with an equal volume of Bio-Plex phosphoprotein assay Buffer B, The coupled and color coated beads were added into a 96 well filter plate, and the prepared lysates were added. The beads and lysate mixture was incubated at room temperature for 15-18 hrs. The following day, the plate was vacuum-filtered and then washed 3×. Twenty-five microliters of detection antibody solution were added to each well and the plate was then incubated for 30 min at room temperature. The plate was then vaccum-filtered and washed as described previously. Fifty microliters of streptavidin-PE solution was added to each well, the plate was incubated for 10 min at room temperature and then was then vaccum-filtered and washed as described above. One hundred twenty-five microliters of resuspension buffer was added to each well and data were acquired on the Luminex 100 instrument (Bio-Rad).

As a reminder, the IC50 is the concentration needed to halve the response being measured. Low readings indicate greater potency, high ones weaker potency. In general, inhibition refers to the drop in the measured response relative to a control, in per cent. A high value points to a strong effect.

Consider `CCOC(=O)c1cn2ncnc(N)c2c1-c1ccc(NC(=O)Nc2cc(C(C)(C)C)nn2-c2ccc(F)cc2)cc1` [Example 25, ethyl 4-amino-5-{4-[({[3-tert-butyl-1-(4-fluorophenyl)-1H-pyrazol-5-yl]amino}carbonyl)amino]phenyl}pyrrolo[2,1-f][1,2,4]triazine-6-carboxylate], for which the half-maximal inhibitory concentration (IC50) in test [1] and in test [2] was below 0.5 µM throughout.
`Nc1ncnn2cc(C(=O)NC3CC3)c(-c3ccc(NC(=O)Nc4cc(C(F)(F)F)ccc4F)cc3)c12` [Example 69, 4-amino-N-cyclopropyl-5-{4-[({[2-fluoro-5-(trifluoromethyl)phenyl]amino}carbonyl)amino]phenyl}pyrrolo[2,1-f][1,2,4]triazine-6-carboxamide]: the IC50 in test [1] (bounds given in μM) is 1.5 to 5 µM; in test [2], above 0.5 µM; in test [2] (bounds given in μM) it was below 1.5 µM.
As for `CCNC(=O)c1cn2ncnc(N)c2c1-c1ccc(NC(=O)Nc2cc(C(F)(F)F)ccc2F)cc1` [Example 71, 4-amino-N-ethyl-5-{4-[({[2-fluoro-5-(trifluoromethyl)phenyl]amino}carbonyl)amino]phenyl}pyrrolo[2,1-f][1,2,4]triazine-6-carboxamide], the values for the IC50 in test [1], in test [2] and in test [2] (bounds given in μM) were below 0.5 µM, above 0.5 µM and below 1.5 µM, respectively.
As for `CNC(=O)c1cn2ncnc(N)c2c1-c1ccc(NC(=O)Nc2cc(C(C)(C)C)ccn2)cc1` [Example 73, 4-amino-5-[4-({[(4-tert-butylpyridin-2-yl)amino]carbonyl}amino)phenyl]-N-methylpyrrolo[2,1-f][1,2,4]triazine-6-carboxamide], the concentration for half-maximal inhibition (IC50) in test [1] (bounds given in μM) and in test [2] (bounds given in μM) was 1.5 to 5 µM throughout.
As for `CNC(=O)c1cn2ncnc(N)c2c1-c1ccc(NC(=O)Nc2ccc(F)c(C(F)(F)F)c2)cc1` [Example 74, 4-amino-5-{4-[({[4-fluoro-3-(trifluoromethyl)phenyl]amino}carbonyl)amino]phenyl}-N-methylpyrrolo[2,1-f][1,2,4]triazine-6-carboxamide], the 50% inhibitory concentration (IC50) in test [1] (bounds given in μM) and in test [2] (bounds given in μM) was 1.5 to 5 µM in each case.
On to `CC(C)(C)c1ccnc(NC(=O)Nc2ccc(-c3c(C(=O)NC4CC4)cn4ncnc(N)c34)cc2)c1` [Example 76, 4-amino-5-[4-({[(4-tert-butylpyridin-2-yl)amino]carbonyl}amino)phenyl]-N-cyclopropylpyrrolo[2,1-f][1,2,4]triazine-6-carboxamide], for which the IC50 in test [1] (bounds given in μM) was 1.5 to 5 µM; in test [2], above 0.5 µM; in test [2] (bounds given in μM), below 1.5 µM.
As for `Nc1ncnn2cc(C(=O)NC3CC3)c(-c3ccc(NC(=O)Nc4cc(C(F)(F)F)ccn4)cc3)c12` [Example 82, 4-amino-N-cyclopropyl-5-{4-[({[4-(trifluoromethyl)pyridin-2-yl]amino}carbonyl)amino]phenyl}pyrrolo[2,1-f][1,2,4]triazine-6-carboxamide], the IC50 in test [1] was above 0.5 µM; in test [1] (bounds given in μM), below 1.5 µM; in test [2] (bounds given in μM), 1.5 to 5 µM.
Compound `COCCN(C)C(=O)c1cn2ncnc(N)c2c1-c1ccc(NC(=O)Nc2ccc(F)c(C(F)(F)F)c2)cc1` [Example 84, 4-amino-5-{4-[({[4-fluoro-3-(trifluoromethyl)phenyl]amino}carbonyl)amino]phenyl}-N-(2-methoxyethyl)-N-methylpyrrolo[2,1-f][1,2,4]triazine-6-carboxamide] displayed an IC50 in test [2] (bounds given in μM) of 5 to 10 µM.
Turning to `Cn1nc(C(C)(C)C)cc1NC(=O)Nc1ccc(-c2c(C(=O)NCC(F)(F)F)cn3ncnc(N)c23)cc1` [Example 94, 4-amino-5-[4-({[(3-tert-butyl-1-methyl-1H-pyrazol-5-yl)amino]carbonyl}amino)phenyl]-N-(2,2,2-trifluoroethyl)pyrrolo[2,1-f][1,2,4]triazine-6-carboxamide], the IC50 fell in the range of 1.5 to 5 µM in test [1] (bounds given in μM) and 5 to 10 µM in test [2] (bounds given in μM).
In test [3], `CCOC(=O)c1cn2ncnc(N)c2c1-c1ccc(NC(=O)Nc2ccc(OC)c(CN3CCOCC3)c2)cc1` [Example 96, ethyl 4-amino-5-{4-[({[4-methoxy-3-(morpholin-4-ylmethyl)phenyl]amino}carbonyl)amino]phenyl}pyrrolo[2,1-f][1,2,4]triazine-6-carboxylate] came in with an inhibition at 0.1 µM below 50%, an inhibition at 1 µM below 50% and an inhibition at 10 µM above 50%.
As to `CCOC(=O)c1cn2ncnc(N)c2c1-c1ccc(NC(=O)Nc2cccc(OCCN(CC)CC)c2)cc1` [Example 98, ethyl 4-amino-5-(4-{[({3-[2-(diethylamino)ethoxy]phenyl}amino)carbonyl]amino}phenyl)pyrrolo[2,1-f][1,2,4]triazine-6-carboxylate], in test [3], the inhibition at 0.1 µM was below 50%, the inhibition at 1 µM is below 50% and the inhibition at 10 µM is above 50%.
In the case of `NC(=O)c1cn2ncnc(N)c2c1-c1ccc(NC(=O)Nc2cc(C(F)(F)F)ccc2F)cc1` [Example 104, 4-amino-5-{4-[({[2-fluoro-5-(trifluoromethyl)phenyl]amino}carbonyl)amino]phenyl}pyrrolo[2,1-f][1,2,4]triazine-6-carboxamide], in test [3], the inhibition at 0.1 µM is below 50%, the inhibition at 1 µM is below 50% and the inhibition at 10 µM is above 50%.
In test [3], `COCCNC(=O)c1cn2ncnc(N)c2c1-c1ccc(NC(=O)Nc2cccc(SC(F)(F)F)c2)cc1` [Example 131, 4-amino-N-(2-methoxyethyl)-5-(4-{[({3-[(trifluoromethyl)thio]phenyl}amino)carbonyl]amino}phenyl)pyrrolo[2,1-f][1,2,4]triazine-6-carboxamide] came in with an inhibition at 0.1 µM below 50% and an inhibition at 1 µM above 50%.
Turning to `Nc1ncnn2cc(C(=O)NCC(F)(F)F)c(-c3ccc(NC(=O)Nc4ccnc(C(F)(F)F)c4)cc3)c12` [Example 140, 4-amino-N-(2,2,2-trifluoroethyl)-5-{4-[({[2-(trifluoromethyl)pyridin-4-yl]amino}carbonyl)amino]phenyl}pyrrolo[2,1-f][1,2,4]triazine-6-carboxamide], in test [3], the inhibition at 0.1 µM is below 50%, the inhibition at 1 µM is below 50% and the inhibition at 10 µM is above 50%.
In test [3], `CC(C)(CO)NC(=O)c1cn2ncnc(N)c2c1-c1ccc(NC(=O)Nc2cc(C(F)(F)F)ccc2Cl)cc1` [Example 143, 4-amino-5-{4-[({[2-chloro-5-(trifluoromethyl)phenyl]amino}carbonyl)amino]phenyl}-N-(2-hydroxy-1,1-dimethylethyl)pyrrolo[2,1-f][1,2,4]triazine-6-carboxamide] showed an inhibition at 0.1 µM below 50% and an inhibition at 1 µM above 50%.
For `Nc1ncnn2cc(C(=O)NCC3CCCO3)c(-c3ccc(NC(=O)Nc4cc(C(F)(F)F)ccc4F)cc3)c12` (stereo not shown) [Example 146, 4-amino-5-{4-[({[2-fluoro-5-(trifluoromethyl)phenyl]amino}carbonyl)amino]phenyl}-N-(tetrahydrofuran-2-ylmethyl)pyrrolo[2,1-f][1,2,4]triazine-6-carboxamide] the same measures were below 50% and above 50%.
Taken in the same sequence, the figures for `N#Cc1cn2ncnc(N)c2c1-c1ccc(NC(=O)Nc2cccc(C(F)(F)F)n2)cc1` [Example 168, N-[4-(4-amino-6-cyanopyrrolo[2,1-f][1,2,4]triazin-5-yl)phenyl]-N′-[6-(trifluoromethyl)pyridin-2-yl]urea] were below 50% and above 50%.
Take `Nc1ncnn2cc(CO)c(-c3ccc(NC(=O)Nc4cc(C(F)(F)F)ccc4F)c(F)c3)c12` [Example 251, N-{4-[4-amino-6-(hydroxymethyl)pyrrolo[2,1-f][1,2,4]triazin-5-yl]-2-fluorophenyl}-N′-[2-fluoro-5-(trifluoromethyl)phenyl]urea]: the IC50 was above 0.5 µM in test [1] and below 1.5 µM in test [1] (bounds given in μM).

The values are drawn from patent publication US7563791B2, “Pyrrolotriazine derivatives useful for treating hyper-proliferative disorders and diseases associated with angiogenesis” (Bayer Pharmaceuticals Corporation, priority 2004, dated 2009).
